Results taken from patent publication EP0364584A1, “ANTIDOTE FOR ORGANIC PHOSPHORUS COMPOUND POISONING” (priority 1988, dated 1989).
Read-outs that look alike come from different tables or passages of the source.

How the values were obtained:
[1] = Content of the drugs in blood and brain after intramuscular administration (Askew method); format: in vivo, Ratten; details: for concentration at 2 h: 2 St., read-out: Konzentration (µg/g) 2 St. (converted); for concentration at 3 h: 3 St., read-out: Konzentration (µg/g) 3 St.; for concentration at 5 min: read-out: Konzentration (µg/g) 5 min; for concentration at 20 min: read-out: Konzentration (µg/g) 20 min (converted); for concentration at 0.5 h: 30 min, read-out: Konzentration (µg/g) 30 min; for concentration at 1 h: read-out: Konzentration (µg/g) I St.; for concentration at 10 min: IO min, read-out: Konzentration (µg/g) IO min (converted)
Procedure: Mit Hilfe der Methode von Askew (1956) wurde in der Dynamik der Gehalt des erfindungsgemäßen Arzneimittels im Blut und Gehirn der Tiere untersucht. Die Untersuchungen wurden im Vergleich zum bekannten Präparak TMB-4 vorgenommen. Die Geschwindigkeit des Eindringens beider Präparate ins Blut und deren Konzentration wurden bei der-intramuskulären Einführung in Dosen von 20 ..und 50 mg/kg und der Gehirnspiegel - in einer Dosis von 50 mg/kg bestimmt. […]
Es wurde festgestellt, daß die Präparate schnell (nach 5 min) von der Einführungsstelle ins Blut eindringen, dabei wurde unabhängig von der Prüfdosis der Präparate deren Maximalgehalt im Blut 20 min nach der Einführung beobachtet, zwar erhöhte die Vergrößerung der Dosis der Präparate bis 50 mg/kg wesentlich deren Konzentrationsniveau während der ganzen Beobachtungsfrist.
Die im Vergleich zu TMB-4 durchgeführten Untersuchungen haben ergeben, dass während der ersten Stunde der Blutgehalt und das Anwachsen der Konzentrationen beider Präparate gleich waren. […] Die Untersuchungsergebnisse sind in der Tabelle 3 angeführt.
Nach den Ergebnissen der durchgeführten Untersuchungen wurde festgestellt, dass das erfindungsgemässe Arz- neimittel bei der intramuskulären Einführung schnell ins Blut und Gehirn des Tieres eindringt und zum Unterschied von TMB-4 eine längere Zeit im 3lutstrom zirkuliert und von 5 min an bis 4 Stunden Beobachtung im Gehirn in bedeutend grösseren Mengen enthalten ist.

[2] = target: T1, Azetylcholinesterase des Rattengehirns (Rattus norvegicus, UniProt P37136); test: Histochemical study of acetylcholinesterase activity in rat brain; format: in vivo, Ratten
T1 construct: Azetyl- und Buty rylcholinesterase des Rattengehirns; from tissue; host or cells: rat brain sections after in vivo dosing
Description: (§1) Nach den histochemischen Methoden wurde der Einfluss des erfindungsgemässen Arzneimittels auf die Aktivität der Azetyl- und Buty rylcholinesterase des Rattengehirns untersucht und es wurde gezeigt, dass dieser von der Dosis des Arzneimittels und der Einführungszeit abhängt. […] Die Fermenthemmung wird bis 2 Stunden lang beobachtet, nachher folgt eine unbedeutende Aktivierung der Azetylcholinesterase, die bis 24 Stunden aufrechterhalten bleibt.

[3] = Acute toxicity, single administration, cats; details: cat, in vivo, im; Katzen, intramuskulär; read-out: LD50 (mg/kg) und deren zuverlässige Grenzen P = 0,05
Description: (§2) Die Toxizität des erfindungsgemässen Arzneimittels bei der einmaligen Einführung (die akute Toxizität) wurde an geschlechtsreifen Tieren (an Mäusen, Ratten, Katzen, Hunden) bestimmt. Die Analyse der experimentellen Angaben für Mäuse und Ratten wurde nach der Methode der Probit-Analyse nach Litchfield und Wilcoxon, und für Hunde und Katzen nach der Methode der Anreicherung der Frequenz nach Behrens durchgeführt.
(§3) Die Toxizitätsparameter LD50 wurden für Mause bei der intraperitonealen und subkutanen Einführung, für Ratten bei der subkutanen, intramuskulären und enteralen Einführung, für Katzen bei der intramuskulären Einführung und für Hunde bei der subkutanen Einführung bestimmt.

[4] = tested on: Gehirn der Tiere (Ratten); test: Morphological and histochemical examination of the brain; format: in vivo; details: Dosen 5, 20 und 50 mg/kg; no haemorrhages
Procedure: Der Grad deren Ausgeprägtheit wird etwas höher und länger in den Gehirnstrukturen (3 Tage) bei einer Dosis des erfindungsgemässen Arzneimittels von 50 mg/kg aufrechterhalten, als bei Dosen von 5 und 20 mg/kg. Die Kapillarhyperämie wird durch keine Blutergüsse und Störungen des argyrophilen Gestells der Hirnblutgefässe begleitet. Die morphologische und histochemische Untersuchung des Rattengehirns, denen das erfindungsgemässe Arzneimittel in Dosen von 5, 20 und 50 mg/kg eingeführt wurde, gestattet, die erhaltenen Veränderungen als funktionelle einzuschätzen (die Schwankung der Aktivität der Azetylcholinesterase und der Butyrylcholinesterase, die […] Hyperämie), die von einer deutlichen Neurotropie des Arzneimittels zeugen.

[5] = Acute toxicity, single administration, dogs; details: dog, in vivo, sc; Hunde, subkutan; read-out: LD50 (mg/kg) und deren zuverlässige Grenzen P = 0,05
Description: as §2, §3

[6] = target: T2, Butyrylcholinesterase des Rattengehirns (Rattus norvegicus, UniProt Q9JKC1); test: Histochemical study of butyrylcholinesterase activity in rat brain; format: in vivo, Ratten
T2 construct: from tissue; host or cells: rat brain sections (glia, capillaries) after in vivo dosing
Description: as §1
Es muss hervorgehoben werden, dass die beobachteten Veränderungen der Aktivität des Ferments von keinem deutlich ausgeprägten Charakter sind.

[7] = tested on: Kranken mit akuten peroralen Vergiftungen mit verschiedenen phosphororganischen Insektiziden; test: Clinical study in patients with acute oral poisoning by organophosphorus insecticides; format: in vivo, Menschen
Description: Das erfindungsgemässe Arzneimittel wurde in der Klinik an Kranken mit akuten peroralen Vergiftungen mit verschiedenen phosphororganischen Insektiziden untersucht. Insgesamt wurden 183 Menschen behandelt, die in die Klinik gelangten. Daraus befanden sich 26 Menschen in einer leichten, 48 Kranke - in einer mässigen und 75 Kranke in einer schweren Vergiftungsstufe. Das Alter der Geschädigten schwankte von 15 bis 76 Jahren. Die Zeit des Behandlungsbeginns betrug I bis 12 stunden nach der Einnahme des Insektizids und in 28 Fällen wurde die Behandlung vor der Hospitalisierung begonnen.
Die therapeutische Effektivität des erfindungsgemässen Arzneimittels wurde mit der ähnlichen Wirkung des wirksamsten bekannten Präparats TMB-4 verglichen (insgesamt 50 Menschen) .
Das erfindungsgemässe Arzneimittel wurde in Kombination mit Atropin neben aktiven Methoden der Detoxikation ausgenutzt, die die Giftentfernung aus dem Organismus bezweckten und das Durchwaschen des Magens, die Verordnung von Abführungsmitteln, Siphon- und Abführungsklystieren, die Beschleunigung der Diurese, aktive symptomatische und Erhaltungstherapie, allgemein stärkenden Behandlung, Massnahmen zur Korrektion der Störungen des säurig-alkalischen und wässrigen und Elektrolytzustands einschliessen. […]

[8] = rat, blood, im, Blut, Dosis 20 mg/kg intramuskulär, Ratten
[9] = rat, blood, im, Blut, Dosis 50 mg/kg intramuskulär, Ratten
[10] = rat, brain, im, Gehirn, Dosis 50 mg/kg intramuskulär, Ratten

T1 sequence (P37136 32-614): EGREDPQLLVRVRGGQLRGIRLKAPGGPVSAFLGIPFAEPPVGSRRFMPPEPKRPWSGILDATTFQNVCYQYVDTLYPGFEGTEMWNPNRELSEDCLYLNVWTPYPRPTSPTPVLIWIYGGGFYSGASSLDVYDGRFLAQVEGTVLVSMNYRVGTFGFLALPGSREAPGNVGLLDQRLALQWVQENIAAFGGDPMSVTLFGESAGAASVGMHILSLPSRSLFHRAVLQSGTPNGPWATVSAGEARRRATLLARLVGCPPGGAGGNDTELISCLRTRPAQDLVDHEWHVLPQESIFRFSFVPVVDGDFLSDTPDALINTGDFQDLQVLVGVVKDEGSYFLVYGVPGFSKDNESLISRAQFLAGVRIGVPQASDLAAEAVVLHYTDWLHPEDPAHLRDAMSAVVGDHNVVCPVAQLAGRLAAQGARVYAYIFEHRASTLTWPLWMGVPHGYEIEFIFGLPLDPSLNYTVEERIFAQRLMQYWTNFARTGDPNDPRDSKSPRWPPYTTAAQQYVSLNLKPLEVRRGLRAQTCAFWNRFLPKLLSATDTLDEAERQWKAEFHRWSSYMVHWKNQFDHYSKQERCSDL
T2 sequence (Q9JKC1 24-597): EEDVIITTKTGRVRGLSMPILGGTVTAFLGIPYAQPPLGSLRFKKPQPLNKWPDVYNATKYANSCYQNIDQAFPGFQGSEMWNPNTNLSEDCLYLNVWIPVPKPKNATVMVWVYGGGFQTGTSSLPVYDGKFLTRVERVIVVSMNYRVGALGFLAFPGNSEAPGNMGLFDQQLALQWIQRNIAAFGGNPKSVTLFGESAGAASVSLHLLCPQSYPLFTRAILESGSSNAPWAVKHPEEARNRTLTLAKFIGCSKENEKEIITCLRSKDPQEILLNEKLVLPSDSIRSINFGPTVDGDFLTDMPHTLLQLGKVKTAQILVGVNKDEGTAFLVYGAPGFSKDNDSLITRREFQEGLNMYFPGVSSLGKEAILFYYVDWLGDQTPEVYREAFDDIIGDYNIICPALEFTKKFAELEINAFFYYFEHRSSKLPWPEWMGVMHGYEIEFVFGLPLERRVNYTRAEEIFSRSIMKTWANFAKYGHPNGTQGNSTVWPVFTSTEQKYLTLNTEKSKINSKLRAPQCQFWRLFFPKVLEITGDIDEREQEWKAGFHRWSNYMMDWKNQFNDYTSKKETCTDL

SMILES: C=CC[n+]1ccccc1C=NO [das erfindungsgemässe Arzneimittel, N-Allyl-2-pyridinaldoxiinbromid]
- Konzentration (µg/g) I St. ([1]; Blut, Dosis 50 mg/kg intramuskulär, I St., Ratten): IO,I
- Konzentrationsniveau im Blut im Vergleich zu TMB-4 ([1]; late time points (printed: 3 und 1 Stunden)): ungefähr um das Doppelte
- concentration at 2 h [1, 8]: 2.3 µg/g
- concentration at 3 h [1, 8]: 0.92 µg/g
- concentration at 5 min [1, 8]: 2.95 µg/g
- concentration at 20 min [1, 8]: 5.16 µg/g
- concentration at 0.5 h [1, 8]: 4.7 µg/g
- concentration at 1 h ([1]; rat, blood, im, Blut, Dosis 20 mg/kg intramuskulär, I St., Ratten): 4.4 µg/g
- concentration at 10 min [1, 8]: 4.95 µg/g
- concentration at 2 h [1, 9]: 4.6 µg/g
- concentration at 3 h [1, 9]: 3.6 µg/g
- concentration at 5 min [1, 9]: 16.2 µg/g
- concentration at 20 min [1, 9]: 18 µg/g
- concentration at 0.5 h [1, 9]: 12.7 µg/g
- concentration at 10 min [1, 9]: 19 µg/g
- Tmax ([1]; rat, blood, im, intramuskuläre Einführung, summary statement, read-out: Maximalniveau erreicht nach): 20 to 30 min
- concentration at 2 h [1, 10]: 1.12 µg/g
- concentration at 3 h [1, 10]: 0.64 µg/g
- concentration at 5 min [1, 10]: 2.64 µg/g
- concentration at 20 min [1, 10]: 4 µg/g
- concentration at 0.5 h [1, 10]: 3.75 µg/g
- concentration at 1 h ([1]; rat, brain, im, Gehirn, Dosis 50 mg/kg intramuskulär, I St., Ratten): 2.06 µg/g
- concentration at 10 min [1, 10]: 5.65 µg/g
- Einfluss auf die Aktivität der Azetyl- und Butyrylcholinesterase des Rattengehirns ([2]; Dosis 5 mg/kg, histochemical): keine Abweichung der Fermentaktivität von der Norm
- Einfluss auf die Aktivität der Azetylcholinesterase ([2]; Dosis 20 mg/kg, except white matter of hemispheres and Formatio reticularis neurons (inhibition 30 min bis 2 Stunden)): verändert es auch im wesentlichen die Aktivität der Azetylcholinesterase nicht
- Einfluss auf die Aktivität der Azetylcholinesterase ([2]; Dosis 50 mg/kg, several brain structures, inhibition bis 2 Stunden, then slight activation bis 24 Stunden): deutlicher ausgeprägte Veränderungen der Azetylcholinesteraseaktivität
- Aktivität der Azetylcholinesterase in den Neuronen der Grosshirnrinde ([2]; Dosis 20 und 50 mg/kg): keine Veränderungen der Aktivität der Azetylcholinesterase festgestellt
- LD50 [3]: 126 mg/kg
- Histochemische Untersuchungen des Gehirns [4]: allgemeine unbedeutende Kapillarhyperämie
- LD50 [5]: 112 mg/kg
- Aktivität der Butyrylcholinesterase in den Kapillaren aller Bildungen des Gehirns ([6]; bis 2 Tage lang, dose dependent, more marked at 50 mg/kg): unbedeutende Aktivierung des Ferments
- Aktivität der Butyrylcholinesterase in den Nervenkittzellen des Gehirns ([6]; in allen untersuchten Konzentrationen): die Aktivität der Butyrylcholinesterase in den Nervenkittzellen des Gehirns nicht
- Nebenerscheinungen und Kontraindikationen ([7]; Einzeldosis 0,075 g, Kurdosis 0,4 bis 1,6 g): keine Nebenerscheinungen und Kontraindikationen
- Kennziffer der Funktion der Leber und der Stoffwechselprozesse ([7]; Eiweissfraktion, Bilirubin, Transaminasenaktivität, Blutzucker, Elektrolyt- und Gaswechsel): zu deren Normalisierung beiträgt
